# Test results from patent US9127044B2, “Cyclic depsipeptides” (NOVARTIS AG, priority 2007, dated 2015).
# pIC50: −log10 of the molar value. Where “and” joins values, the source holds several entries; their conditions need not be identical. Equal entries are not always repeated.
# How the values were obtained:
# [1] = molecular target: T1, Human neutrophil elastase (Homo sapiens, UniProt P08246); experiment: HNE inhibitory activity in vitro (fluorescence-quenched substrate); assay type: biochemical
# T1 construct: purchased Elastin Products Company, Inc. (EPC, Owensville, USA) SE563
# T1 sequence (P08246 30-267): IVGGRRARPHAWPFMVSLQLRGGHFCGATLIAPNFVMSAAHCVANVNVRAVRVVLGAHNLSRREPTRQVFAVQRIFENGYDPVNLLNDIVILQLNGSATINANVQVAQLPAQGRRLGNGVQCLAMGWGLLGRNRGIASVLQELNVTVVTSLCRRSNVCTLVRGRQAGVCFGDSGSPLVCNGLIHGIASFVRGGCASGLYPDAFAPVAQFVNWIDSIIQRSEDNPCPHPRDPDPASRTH
# Crl:NMRI mice = experiment: Anti-inflammatory activity in murine model of allergic contact dermatitis (ACD), oxazolone; assay type: in vivo; conditions: for Δ Auricular weights Mean (SD): 10 μl topical 30 min after challenge, n: 8 animals per group; for % Inhibition of inflammatory swelling Mean ± SE: single topical application, p<0.001 vs solvent-treated animals
# Description: Method: Crl:NMRI mice were sensitized on the shaved abdomen with 50 μl of 2% oxazolone on day 1 and challenged with 10 μl oxazolone on the inner surface of the right ear on day 8. The unchallenged left ears served as normal controls and dermatitis was evaluated from the difference in auricular weight (taken as a measure of inflammatory swelling) on day 9. The animals were treated topically with 10 μl test compound or the solvent only 30 min after the challenge. The efficacy of the treatment was calculated as the percentage inhibition of inflammatory auricular swelling relative to animals treated with the vehicle alone.
compound,measurement,setting,value
CCC(C)[C@@H]1NC(=O)[C@H](Cc2ccc(O)cc2)N(C)C(=O)[C@H](C(C)CC)N2C(=O)C(CC[C@@H]2O)NC(=O)[C@H](CC(C)C)NC(=O)[C@@H](NC(=O)[C@H](CCC(N)=O)NC(=O)C(C)C)[C@@H](C)OC1=O (some centres unmarked) [formula II],pIC50,[1],8.00
same,Δ Auricular weights Mean (SD),Crl:NMRI mice; 10 mM,17.0 (4.8)
same,% Inhibition of inflammatory swelling Mean ± SE,Crl:NMRI mice; 10 mM,40% and 40 ± 6.9%
same,Δ Auricular weights Mean (SD),Crl:NMRI mice; 30 mM,15.3 (5.4)
same,% Inhibition of inflammatory swelling Mean ± SE,Crl:NMRI mice; 30 mM,46% and 46 ± 7.5%
